Values of other authors as cited in patent publication US12661328B2, “Methods of treating anti-NMDAR-associated neuropsychiatric disorders” (Vanderbilt University, priority 2018, dated 2026).

What was measured:
[1] = tested on: NMDA receptors
[2] = tested on: γ-aminobutyric acid (GABA), benzodiazepine, dopamine, adrenergic, histamine, or glycine receptors
[3] = tested on: voltage-dependent calcium, sodium, or potassium channels
[4] = tested on: extrasynaptic NMDA receptors; details: Xia et al., 2010

## CC12CC3CC(C)(C1)CC(N)(C3)C2 [Memantine, 1-amino-3,5-dimethyladamantane]
[1]
  affinity for NMDA receptors: low to moderate-affinity
[2]
  affinity for GABA, benzodiazepine, dopamine, adrenergic, histamine, or glycine receptors: no affinity
[3]
  affinity for voltage-dependent calcium, sodium, or potassium channels: no affinity
[4]
  concentration range of relatively specific inhibition of extrasynaptic NMDA receptors: low micromolar range
